Data from patent US11360080B2, “AhR-ROR-γt complex as a biomarker and therapeutic target for autoimmune disease and IL-17A-associated disease” (NATIONAL HEALTH RESEARCH INSTITUTES, priority 2018, dated 2022).
Where a name gives a salt, the structure may show the parent alone.

How the values were obtained:
[1] = system: human hepatoma Huh-7 cells; experiment: Transwell migration assay; format: cell-based; settings: C1 2 uM or 5 uM; C2 2 uM or uM
Experimental: (§1) Transwell migration assays of human glioma U87 cells, human pancreatic cancer Panc-1 cells, mouse lung cancer LL2 cells, or human hepatoma Huh-7 cells treated with the GLK inhibitor C1 (verteporfin) (a; 2 uM or 5 uM) or C2 (alexidine dihydrochloride) (b; 2 uM or uM). C1 denotes verteporfin; C2 denotes alexidine dihydrochloride.
(§2) For primary cell migration assays, 2×10^5 cells in […] of IMDM with 10% FBS were seeded into the upper chamber of transwells (8 μm pore size, Corning), and the lower chamber was loaded with […] of IMDM with 20% FBS. For cancer cell migration assays, 5×10^4 cells in 200 μl of RPMI 1640 with 10% FBS were seeded into the upper chamber of transwells (8 μm pore size, Corning), and the lower chamber was loaded with […] of RPMI 1640 with 10% FBS. After incubation at 37° C. for 24 h, cells migrating to the lower chamber were imaged and counted by bright-field microscopy following fixation with absolute methanol and staining with 1% crystal violet solution.

[2] = system: mouse lung cancer LL2 cells; experiment: Transwell migration assay; format: cell-based; settings: C1 2 uM or 5 uM; C2 2 uM or uM
Experimental: as §1, §2

human glioma U87 cells = experiment: Transwell migration assay; format: cell-based; settings: C1 2 uM or 5 uM; C2 2 uM or uM
Experimental: as §1, §2

[3] = system: human pancreatic cancer Panc-1 cells; experiment: Transwell migration assay; format: cell-based; settings: C1 2 uM or 5 uM; C2 2 uM or uM
Experimental: as §1, §2

HPK1 (MAP4K1) = biological target: T1, HPK1 (MAP4K1) (Homo sapiens, UniProt Q92918); experiment: In vitro kinase assay, recombinant kinase domain, MBP as substrate; format: biochemical
T1 construct: Recombinant proteins of kinase domains of various MAP4Ks were used
T1 sequence (Q92918 17-274 limits assumed, species assumed): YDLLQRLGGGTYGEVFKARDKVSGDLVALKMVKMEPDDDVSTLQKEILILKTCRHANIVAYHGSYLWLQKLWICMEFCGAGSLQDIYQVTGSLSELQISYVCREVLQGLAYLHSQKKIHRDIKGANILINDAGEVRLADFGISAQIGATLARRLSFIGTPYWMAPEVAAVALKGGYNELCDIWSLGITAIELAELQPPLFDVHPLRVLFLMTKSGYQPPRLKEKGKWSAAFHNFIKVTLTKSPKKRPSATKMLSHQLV
Experimental: (§3) GLK kinase activity was determined by measuring the rate of ADP production in the in vitro kinase reaction using ADP-GLO™ Kinase Assay kit. For the kinase reaction, recombinant proteins of the GLK kinase-domain (1 μg) were incubated with recombinant proteins of kinase-dead PKCθ (K409W; 0.15 μg) plus ATP (0.1 mM) or myelin basic protein (MBP) plus ATP (0.1 mM) in kinase buffer (40 mM Tris-HCl, pH7.5.20 mM MgCl2, 0.1 mg/ml BSA, 10 mM DTT and 0.1 mM Na3VO4) for 30 min at room temperature. We studied whether GLK inhibitors also suppress cancer cell migration. […] Moreover, both C1 (verteporfin) and C2 (alexidine dihydrochloride) treatments suppressed tumor growth in the xenograft mouse model using TC-1 lung cancer cells (FIG. 15). To study whether GLK deficiency results in a reduction of lung cancer metastasis, we used a metastatic Lewis lung carcinoma (LLC) mouse model by tail vein injection of luciferase-expressing LLC (LLC/luc) cells. We identified two GLK inhibitors (verteporfin and alexidine dihydrochloride)) using cell-based assays and in vitro kinase assays. […] The dimerization of Flag-tagged GLK protein and GFP-GLK fusion protein was indeed blocked by the C1 (verteporfin) treatment (FIG. 16C). We treated the LLC/luc cells-containing mice with the GLK inhibitor C1 (verteporfin) or C2 (alexidine dihydrochloride) by intravenous injection every 3 days for 30 days (FIG. 16D). The luciferase activity of LLC/luc cells in the mice was detected by In Vivo Imaging System. The excised lungs were weighed and subjected to H&E staining. The luciferase activity of LLC/luc cells in the lung of injected mice was reduced by the treatment of C1 (verteporfin) or C2 (alexidine dihydrochloride) (FIGS. 16E-F). […] Moreover, the interaction between GLK and IQGAP1 in the lung tissues were inhibited by the treatment of C1 (verteporfin) or C2 (alexidine dihydrochloride) (FIG. 16H, upper panel), and IQGAP1 phosphorylation was in the lung tissues were inhibited (FIG. 16H, lower panel). […] Inhibition of kinase activity of GLK (MAP4K3) or other MAP4Ks was determined by in vitro kinase assays using myelin basic protein (MBP) as a substrate. Recombinant proteins of kinase domains of various MAP4Ks were used. C1, verteporfin: C2, alexidine dihydrochloride.

HGK (MAP4K4) = biological target: T2, HGK (MAP4K4) (Homo sapiens, UniProt O95819); experiment: as above; format: biochemical
T2 construct: Recombinant proteins of kinase domains of various MAP4Ks were used
T2 sequence (O95819 25-289 limits assumed, species assumed): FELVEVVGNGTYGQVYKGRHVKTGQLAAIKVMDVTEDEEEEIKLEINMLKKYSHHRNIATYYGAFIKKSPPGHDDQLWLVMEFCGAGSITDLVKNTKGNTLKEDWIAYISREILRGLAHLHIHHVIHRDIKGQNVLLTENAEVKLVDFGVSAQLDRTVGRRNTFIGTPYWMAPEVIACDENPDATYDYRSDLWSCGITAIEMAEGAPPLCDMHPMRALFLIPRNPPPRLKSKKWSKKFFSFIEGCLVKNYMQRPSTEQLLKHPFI
Experimental: as §3

KHS (MAP4K5) = biological target: T3, KHS (MAP4K5) (Homo sapiens, UniProt Q9Y4K4); experiment: as above; format: biochemical
T3 construct: Recombinant proteins of kinase domains of various MAP4Ks were used
T3 sequence (Q9Y4K4 20-277 limits assumed, species assumed): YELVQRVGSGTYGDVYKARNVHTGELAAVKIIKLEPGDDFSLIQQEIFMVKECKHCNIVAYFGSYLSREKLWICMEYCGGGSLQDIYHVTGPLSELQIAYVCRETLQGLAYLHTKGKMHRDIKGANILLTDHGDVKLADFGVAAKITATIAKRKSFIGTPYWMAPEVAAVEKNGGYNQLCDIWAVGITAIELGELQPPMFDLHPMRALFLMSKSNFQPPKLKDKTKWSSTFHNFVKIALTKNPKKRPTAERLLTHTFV
Experimental: as §3

Compound	migration of hepatoma cells [1]	migration of lung cancer cells [2]	migration of glioma cells (human glioma U87 cells)	migration of pancreatic cancer cells [3]	IC50 (HPK1 (MAP4K1)) [nM]	IC50 (HGK (MAP4K4)) [nM]	IC50 (KHS (MAP4K5)) [nM]
C=Cc1c(C)c2cc3nc(cc4[nH]c(cc5nc(cc1[nH]2)C(C)=C5CCC(=O)O)c(CCC(=O)OC)c4C)[C@@]1(C)C3=CC=C(C(=O)OC)[C@H]1C(=O)OC [C1, verteporfin]	inhibited	inhibited	inhibited	inhibited	7.91	4.92	43.9
CCCCC(CC)CNC(=N)NC(=N)NCCCCCCNC(=N)NC(=N)NCC(CC)CCCC (centres unmarked) [C2, alexidine dihydrochloride]	inhibited	inhibited	inhibited	inhibited	6.14	21.8	18.3
